The experiment deals with M. tuberculosis H37Rv growth inhibition with meropenem. Kind of experiment: dose response, H37Rv, with and without meropenem (AID 434987).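 Note: growth over 7 days at 37 °C before Alamar Blue read on day 9.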
Setting [1] is: M. tuberculosis H37Rv growth inhibition, measured here: IC50 without meropenem.
The mark [2] stands for this setting: M. tuberculosis H37Rv growth inhibition, measured here: IC90 without meropenem.
The mark [3] stands for this setting: measured here: IC90 with meropenem.

Active and inactive are the calls of the source. The rule behind the calls is not given here.

What is called IC50 is the concentration that inhibits the measured activity by half. As usually defined, the IC90 is the concentration at which the effect reaches the 90% level. Higher therefore signals weaker potency. For `COc1ccc(-c2cc3nc(C)cc(N4CC(C)CC(C)C4)n3n2)cc1` (stereo not drawn), the IC50 is > 100 µM (inactive). This compound showed an IC50 under setting [1] of more than 100 µM. Also, the IC90 under setting [2] was more than 100 µM. This compound showed an IC90 under setting [3] of more than 100 µM.
Consider `CN1CCN(c2ccccc2NC(=O)c2ccc(-c3ccc(Cl)c(Cl)c3)o2)CC1`, for which the IC50 is 7.5 µM. The compound also yielded an IC50 under setting [1] of 31.8 µM. The IC90 under setting [2] is more than 100 µM. The IC90 under setting [3] was more than 100 µM.
As for `O=C(N/N=C\c1cn[nH]c1-c1ccc(Cl)cc1)c1cccs1`, the IC50 is > 100 µM (inactive). This compound came in with an IC50 under setting [1] of more than 100 µM. The IC90 under setting [2] is more than 100 µM. The compound further showed an IC90 under setting [3] of more than 100 µM.
As for `CCC1Nc2ncnc(N3CCN(c4ccccc4)CC3)c2N(Cc2ccc(Br)cc2)C1=O` (stereo not drawn), the IC50 is > 100 µM (inactive). Further, the IC50 under setting [1] is more than 100 µM. This compound also gave an IC90 under setting [2] of more than 100 µM. Under setting [3], this compound showed a 90% effect concentration (IC90) of more than 100 µM.
As for `O=C(Cc1ccc(Cl)cc1Cl)Nc1ccc(OC(F)F)c(Cl)c1`, the IC50 is 12.1 µM. Moreover, the IC50 under setting [1] is more than 100 µM. The compound also came in with an IC90 under setting [2] of more than 100 µM. Under setting [3], the IC90 was 13.7 µM.
As to `CCN(CC)c1ccc(C=N/C(C#N)=C(\N)C#N)cc1`, the IC50 is 16.9 µM. This compound also registered an IC50 under setting [1] of more than 100 µM. Under setting [2], this compound displayed an IC90 of more than 100 µM. Under setting [3], the IC90 is more than 100 µM.
For the compound `O=C1C2CCN(CC2)C1Cc1ccc(OCCOc2ccccc2)cc1` (stereo not drawn), the IC50 was > 100 µM (inactive). The half-maximal inhibitory concentration (IC50) under setting [1] is more than 100 µM. The IC90 under setting [2] was more than 100 µM. The compound also displayed an IC90 under setting [3] of more than 100 µM.
For the compound `CCOc1ccc2nc(SC3CC(=O)N(c4cccc(OC)c4)C3=O)sc2c1` (stereo not drawn), the IC50 is 23.5 µM (inactive). Also, the 50% inhibitory concentration (IC50) under setting [1] amounted to 44.2 µM. Besides, the IC90 under setting [2] came to 49.9 µM. For the same compound, the IC90 under setting [3] amounted to 25.7 µM.
In the same order, the values of `C=C(C)C1Cc2c(C)nn(-c3cccc4ccccc34)c2C1` (stereo not drawn) are 15.4 µM, 39.2 µM, 58.5 µM and 47.4 µM.
In the same order, the values of `CCOC(=O)Cc1nc2ccccc2[nH]1` are 15.3 µM, 49.6 µM, more than 100 µM and more than 100 µM.
In the same order, the values of `CCCCn1nc2cc(C(=O)NCC34CC5CC(CC(C5)C3)C4)ccc2c1OCC` are 55.5 µM (inactive), more than 100 µM, more than 100 µM and more than 100 µM.
On to `CCOCC(=O)Nc1ccc(F)c(F)c1`, for which the IC50 was 81.2 µM (inactive). Under setting [1], the IC50 turned out to be 94.5 µM. Under setting [2], this compound showed an IC90 of more than 100 µM. The compound further showed an IC90 under setting [3] of more than 100 µM.
Take `O=C(c1cccc(Cl)c1)N1CCN(Cc2ccccc2F)CC1`: the IC50 was > 100 µM (inactive). The compound further displayed an IC50 under setting [1] of more than 100 µM. Under setting [2], this compound gave an IC90 of more than 100 µM. The compound also came in with an IC90 under setting [3] of more than 100 µM.
As for `COc1cccc(NC(=O)C(=O)c2cn(CC(=O)N3CCOCC3)c3ccccc23)c1`, the IC50 was > 100 µM (inactive). The same compound yielded an IC50 under setting [1] of more than 100 µM. Besides, under setting [2], the IC90 was more than 100 µM. Also, the IC90 under setting [3] was more than 100 µM.
For `CCOC(=O)c1c(C)n(-c2ccccc2)c2ccc(OCCN(C)C)cc12`, the IC50 is 5.45 µM. Besides, under setting [1], the IC50 worked out at 62 µM. Further, the IC90 under setting [2] is more than 100 µM. Also, the IC90 under setting [3] worked out at 21.7 µM.
In the same order, the values of `Cc1ccc(SCc2c(C#N)c3ccccc3n2C)cc1` are > 100 µM (inactive), more than 100 µM, more than 100 µM and more than 100 µM.
For `COC(=O)c1ccccc1NC(=O)CSCC(=O)Nc1ccc(F)cc1`, in that order: 39.7 µM (inactive), 94.9 µM, more than 100 µM and more than 100 µM.
In the same order, the values of `Nc1cc(=O)nc(SCc2ccccc2)n1Cc1ccco1` are 87.3 µM (inactive), more than 100 µM, more than 100 µM and more than 100 µM.
Consider `COc1ccc(OC)c(Nc2nc(-c3cccs3)cs2)c1`, for which the IC50 was 42.8 µM (inactive). This compound came in with an IC50 under setting [1] of 49 µM. In addition, under setting [2], the IC90 was more than 100 µM. Moreover, under setting [3], the 90% effect concentration (IC90) is more than 100 µM.
`COc1cc(NC(=O)C2CCCCC2)c(OC)cc1NC(=O)CN1CCCCC1`: the IC50 was 9.28 µM. This compound yielded an IC50 under setting [1] of 47.4 µM. Further, the IC90 under setting [2] was more than 100 µM. For the same compound, the IC90 under setting [3] was more than 100 µM.
In the case of `O=C(/C=C/c1ccccc1)NC1CC2CCC1C2` (stereo not drawn), the IC50 was > 100 µM (inactive). Also, the IC50 under setting [1] is more than 100 µM. Under setting [2], this compound had an IC90 of more than 100 µM. This compound had a 90% effect concentration (IC90) under setting [3] of more than 100 µM.
Turning to `CCOC(=O)c1sc(NC(=O)Nc2ccc(Cl)cc2)cc1C`, the IC50 was > 100 µM (inactive). Under setting [1], this compound had an IC50 of more than 100 µM. The compound also registered an IC90 under setting [2] of more than 100 µM. The compound further displayed an IC90 under setting [3] of more than 100 µM.

Source of the values: PubChem BioAssay AID434987 (Southern Research Specialized Biocontainment Screening …, 2010).
